In patent US6706880B2 (Research Triangle Institute, priority 1990, dated 2004):
Where a name gives a salt, the structure may show the parent alone. Read-outs that look alike come from different tables or passages of the source.

Assays:
[1] = target: dopamine transporter (UniProt P23977); assay type: binding
Source text: (§1) Illustrative in vitro assays for binding are described in Boja et al Ann. NY Acad. Sci. 654:282-291 (1992), which is incorporated herein by reference in its entirety. […] Alternatively, the compounds may be analyzed by their ability to inhibit reuptake of a labelled neurotransmitter in a sample, in particular, in synaptosomes.

[2] = tested on: dopamine transporter; assay type: binding; conditions: ratio of IC50 values, Table II
Source text: as §1

[3] = target: T1, serotonin transporter (Rattus norvegicus, UniProt P31652); test: Inhibition of [3H]paroxetine radioligand binding at the serotonin transporter
T1 construct: from tissue
T1 sequence (P31652 whole entry): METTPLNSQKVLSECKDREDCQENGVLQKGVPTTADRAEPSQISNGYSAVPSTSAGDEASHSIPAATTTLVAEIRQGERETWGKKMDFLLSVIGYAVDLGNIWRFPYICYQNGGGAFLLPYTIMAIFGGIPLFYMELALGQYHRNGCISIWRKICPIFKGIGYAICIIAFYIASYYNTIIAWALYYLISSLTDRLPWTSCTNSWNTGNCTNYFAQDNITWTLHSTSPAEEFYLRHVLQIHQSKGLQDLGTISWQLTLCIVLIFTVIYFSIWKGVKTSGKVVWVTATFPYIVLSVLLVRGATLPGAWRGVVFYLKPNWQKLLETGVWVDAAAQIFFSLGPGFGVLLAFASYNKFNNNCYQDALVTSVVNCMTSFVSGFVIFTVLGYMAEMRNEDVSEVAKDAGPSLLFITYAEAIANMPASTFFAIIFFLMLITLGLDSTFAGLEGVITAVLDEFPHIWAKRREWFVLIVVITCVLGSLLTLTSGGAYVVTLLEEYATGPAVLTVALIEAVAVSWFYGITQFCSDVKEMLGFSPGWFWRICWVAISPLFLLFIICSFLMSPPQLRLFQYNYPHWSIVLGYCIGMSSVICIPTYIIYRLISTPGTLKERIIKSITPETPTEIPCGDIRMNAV
Source text: as §1

[4] = target: norepinephrine transporter (UniProt Q9WTR4); test: Inhibition of [3H]nisoxetine radioligand binding at the norepinephrine transporter
Source text: as §1

[5] = read-out: DA IC50 for inhibition of radioligand binding, DA=[3H]WIN 35,428
[6] = read-out: IC50 DA [3H]-WIN 35,428, Table II
[7] = 5-HT IC50 for inhibition of radioligand binding, 5-HT=[3H] paroxetine
[8] = IC50 5-HT [3H]-paroxatine, Table II
[9] = read-out: IC50 NE [3H]-nisoxetine, Table II
[10] = read-out: NEN IC50 for inhibition of radioligand binding, NEN=[3H] nisoxetine
[11] = 5-HT=[3H] paroxetine, read-out: 5-HT IC50 for inhibition of radioligand binding
[12] = Table II, read-out: IC50 5-HT [3H]-paroxatine (converted)

SMILES	IC50 [1, 5]	IC50 [1, 6]	5-HT/DA Ratio [2]	NE/DA Ratio [2]	IC50 [3, 7]	IC50 [3, 8]	IC50 [4, 9]	IC50 [4, 10]	IC50 [3, 11]	IC50 [3, 12]	melting point	IC50 ([1]; read-out: IC50 DA [3H]-WIN 35,428, Table IV)	IC50 ([3]; IC50 5-HT [3H]-paroxetine, Table IV)	IC50 ([4]; read-out: IC50 NE [3H]-nisoxetine, Table IV)
CN1C2CCC1C(c1nnc(-c3ccccc3)s1)C(c1ccc(Cl)cc1)C2 (stereo not drawn) [RTI-4229-200, 3β-(4-Chlorophenyl)-2β-(S-phenyl-1,3,4-thiadiazol-2-yl)-tropane Hydrochloride]	15.3 nM	15.3 ± 2.43 nM	1203	271	18.4 µM	18.4 µM	4140 ± 466 nM	4140 nM						
CN1[C@H]2CC[C@@H]1[C@@H](c1nnc(-c3ccccc3)o1)[C@@H](c1ccc(Cl)cc1)C2 [RTI-4229-188, 3β-(4-Chlorophenyl)-2β-(5-phenyl-1,3,4-oxadiazol-2-yl)-tropane Hydrochloride]	12.6 nM	12.6 ± 1.03 nM	262	73		3.3 ± 0.196 µM	929 ± 88 nM	929 nM	3.3 µM					
Cc1cc([C@H]2[C@@H](c3ccc(I)cc3)C[C@@H]3CC[C@H]2N3C)on1 [RTI-4229-180, 3β-(4-Iodophenyl)-2β-(3-methylisoxazol-5-yl)tropane Hydrochloride]		0.73 nM		93		0.0364 µM	67.9 nM	67.9 nM						
CN1[C@H]2CC[C@@H]1[C@@H](c1cc(-c3ccccc3)no1)[C@@H](c1ccc(Cl)cc1)C2 [RTI-4229-177, 3β-(4-Chlorophenyl)-2β-(3-phenylisoxazol-5-yl)tropane Hydrochloride]	1.28 nM	1.28 ± 0.18 nM	1889	393	2.42 µM	2.42 ± 0.136 µM	504 ± 29 nM	504 nM						
Cc1ccc(C2CC3CCC(C2c2cc(C)no2)N3C)cc1.Cl (stereo not drawn) [RTI-4229-171, 3β-(4-Methylphenyl)-2P-(3-methylisoxazol-5-yl)tropane Hydrochloride]	0.93 nM	0.93 nM	4105	273			254 nM	254 nM	3.82 µM	3.82 µM				
CN1C2CCC1C(c1nnc(-c3ccccc3)s1)C(c1ccc(Cl)cc1)C2 (stereo not drawn) (as salt: hydrochloride) [RTI-4229-200, 3β-(4-Chlorophenyl)-2β-(S-phenyl-1,3,4-thiadiazol-2-yl)-tropane Hydrochloride]											165 to 170 °C			
CN1[C@H]2CC[C@@H]1[C@@H](c1cc(-c3ccccc3)no1)[C@@H](c1ccc(Cl)cc1)C2 (as salt: hydrochloride) [RTI-4229-177, 3β-(4-Chlorophenyl)-2β-(3-phenylisoxazol-5-yl)tropane Hydrochloride]											287 °C			
CN1[C@H]2CC[C@@H]1[C@@H](c1nc3ccccc3s1)[C@@H](c1ccc(Cl)cc1)C2 [RTI-4229-202, 3β-(4-Chlorophenyl)-2β-(benzothiazol-2-yl)-tropane Hydrochloride]	1.37 nM	1.37 ± 0.14 nM	817	294	1.12 µM	1.12 ± 0.12 µM	403 ± 30 nM	403 nM						
Cc1ccc([C@H]2C[C@@H]3CC[C@H]([C@H]2c2cc(-c4ccccc4)no2)N3C)cc1 [RTI-4229-176, 3β-(4-Methylphenyl)-2β-(3-phenylisoxazol-5-yl)tropane Hydrochloride]	1.58 nM	1.58 nM	3234	251	5.11 µM	5.11 µM	398 nM	398 nM						
CN1[C@H]2CC[C@@H]1[C@@H](c1ncc(-c3ccccc3)o1)[C@@H](c1ccc(Cl)cc1)C2 [RTI-4229-189, 3β-(4-Chlorophenyl)-2β-(5-phenyl-oxazol-2-yl)-tropane Tartrate]	19.7 nM	19.7 ± 1.98 nM	57	25			496 ± 42 nM	496 nM	1.12 µM	1.12 ± 0.107 µM				
Cc1ccc([C@H]2C[C@@H]3CC[C@H]([C@H]2c2nnc(-c4ccccc4)o2)N3C)cc1 [RTI-4229-195, 3β-(4-Methylphenyl)-2β-(5-phenyl-1,3,4-oxadiazol-2-yl)-tropane Hydrochloride]	47.5 nM	47.5 nM	491	28	22.3 µM	23.3 µM	1310 nM	1310 nM						
Cc1ccc([C@H]2C[C@@H]3CC[C@H]([C@H]2c2nn[nH]n2)N3C)cc1 (as salt: hydrochloride) [RTI-157, 3β-(4-Methylphenyl)-tropane-2β-tetrazole Hydrochloride]											< 212 °C (dec.)			
Cc1ccc([C@H]2C[C@@H]3CC[C@H]([C@H]2c2nnc(C)o2)N3C)cc1 [RTI-4229-194, 3β-(4-Methylphenyl)-2β-(5-methyl-1,3,4-oxadiazol-2-yl)-tropane Hydrochloride]	4.45 nM	4.45 ± 0.12 nM	1098	57	4.88 µM	4.88 ± 0.155 µM	253 ± 19 nM	253 nM						
Cc1ccc([C@H]2C[C@@H]3CC[C@H]([C@H]2c2nn[nH]n2)N3C)cc1 [RTI-157, 3β-(4-Methylphenyl)-tropane-2β-tetrazole Hydrochloride]		1560 nM	28	21		43.6 µM	32500 nM							
Cc1cc([C@H]2[C@@H](c3ccc(Cl)cc3)C[C@@H]3CC[C@H]2N3C)on1 (as salt: hydrochloride) [RTI-165, 3β-(4-Chlorophenyl)-2β-(3-methylisoxazol-5-yl)tropane Hydrochloride]											235 °C (dec.)			
Cc1ccc([C@H]2C[C@@H]3CC[C@H]([C@H]2c2nnc(-c4ccccc4)s2)N3C)cc1 [RTI-4229-199, 3β-(4-Methylphenyl)-2β-(5-phenyl-1,3,4-thiadiazol-2-yl)-tropane Hydrochloride]	35.9 nM	35.9 nM	1434	677	51.5 µM	51.5 µM	24300 nM							
CN1[C@H]2CC[C@@H]1[C@@H](c1ncc(-c3ccccc3)s1)[C@@H](c1ccc(Cl)cc1)C2 [RTI-4229-219, 3β-(4-Chlorophenyl)-2β-(5-phenylthiazol-2-yl)-tropane Hydrochloride]	5.71 nM		1811		10.3 µM	10.3 µM		8560 nM						
CN1[C@H]2CC[C@@H]1[C@@H](C#N)[C@@H](c1ccc(Cl)cc1)C2 [RTI-161, 3β-(4-Chlorophenyl)-tropane-2β-nitrile]											> 220 °C (dec.)	13.1 ± 0.78 nM	1.89 ± 0.134 µM	2520 ± 253 nM
